Source: patent US10822317B2, “Methods and compositions for wound healing” (QBiotics Limited, priority 2013, dated 2020)

What was measured:
[1] = system: human neonatal fibroblasts; experiment: Scratch closure, human neonatal fibroblasts, Method 3 (IncuCyte); format: cell-based
Procedure: The ability of early. passage neonatal foreskin fibroblasts (NFF) cultured in RPMI 1640-10% foetal calf serum to migrate across a scratch wound made in a confluent monolayer following treatment with purified compounds or plant extracts was determined using one or more of the following three methods.
Cells were seeded and treated in 96-well plates as in Method 2 (5 replicate wells per dilution), except that the scratches were made in one action with a tool having 96, 1 mm thick teflon coated pins (Essen Bioscience Woundmaker). The plate was then placed in a 37° C., 5% CO2 humidified atmosphere in an IncuCyte FLR instrument programmed to photograph each well under phase contrast at 3 hr intervals for 42 hours. The software determined the initial scratch boundaries and their rate of closure. Accelerated wound closure was considered to be significant if the initial rate of closure was >10% of the untreated controls.

[2] = system: human neonatal fibroblasts; experiment: Matrigel invasion assay for migratory ability; format: cell-based; conditions: for Cell count as % of control (Control = no compounds added): 30 ng/mL, 24 hrs, fibroblasts starved 2 days, 1% foetal calf serum, ± standard deviation, two replicate experiments
Source text: Matrigel invasion chambers provide cells with the conditions that allow assessment of their invasive property in vitro. The Matrigel invasion chambers consists of a cell culture companion plate with cell culture inserts containing an 8 micron pore size PET membrane with a thin layer of Matrigel Basement Membrane Matrix. The Matrigel matrix serves as a reconstituted basement membrane in vitro. The layer occludes the pores of the membrane, blocking non-invasive cells from migrating through the membrane. In contrast, invasive cells are able to detach themselves from and invade through the Matrigel matrix and the 8 micron membrane pores. The membrane may be processed for light and electron microscopy and can be easily removed after staining.
The chambers were used according to the manufacturer's instructions, as described below in two studies, to assess the effects of Compounds 1, 2, 5 and 42 on migration of human neonatal fibroblasts. The first study assessed effects of three concentrations (0, 10 and 30 ng/mL) of Compound 1 on neonatal fibroblasts in wells containing media with 10% foetal calf serum. The second study used two concentrations (0 and 30 ng/mL) for each of Compounds 1, 2, 5 and 42 to examine effects on migration of neonatal fibroblasts starved for 2 days prior to treatment and then transferred to media with 1% foetal calf serum.
The package containing the chambers was removed from −20° C. storage and allowed to come to room temperature. Warm (37° C.) bicarbonate based culture medium was added to the interior of the inserts (500 μL) and bottom of wells (750 μL). The chambers containing the Matrigel were allowed to rehydrate for 2 hours in humidified tissue culture incubator, 37° C., 5% CO2 atmosphere. After rehydration, the medium was carefully removed by aspiration without disturbing the layer of Matrigel™ Matrix on the membrane.
Cells were harvested, and resuspended at 20,000 cells per mL. A total of 250 μL of the cell suspension was placed into the interior of the insert (5,000 cells). An extra 250 μL media containing the respective Compounds was then added to the interior of the insert to give the desired final concentrations for each of the two studies. A total of 750 μL of media containing appropriate concentrations of each compound in each treatment were placed in the well under the appropriate insert. The Matrigel chambers were then incubated for 24 hours in a humidified tissue culture incubator, at 37° C., 5% CO2 atmosphere.
Non-invading cells were removed from the upper surface of the membrane by “scrubbing”. A cotton tipped swab was dipped into the insert after removal of the media, and firm pressure applied while the tip was moved over the membrane surface. The scrubbing was repeated with a second swab moistened with PBS. Cells that had invaded to the external surface of the insert were then fixed by placing in […] of 100% methanol for at least 5 mins. Inserts were then transferred to a companion plate containing 500 μL of 0.1% crystal violet in methanol, and stained for at least 15 mins. Inserts were destained by passage through 3 companion plates containing 500 μL water, before being air dried.
The following day, the membrane was removed from the insert housing by inverting the insert and inserting the tip of a sharp scalpel blade through the membrane at the edge adjacent to the housing wall. The insert housing was rotated against the stationary blade and the membrane was released. […]

[3] = system: human peripheral blood monocytes; experiment: Differentiation of monocytes into macrophages; format: cell-based; conditions: 10-fold dilutions; 4 days; adherence and morphology
Procedure: To determine potential effects of Compound 1 and fifteen other epoxy-tigliane compounds in the array on monocyte differentiation, human peripheral blood mononuclear cells (PBMCs) were isolated by Ficoll-Paque sedimentation of heparinised blood from a human donor, and plated at 100,000 cells/well in RPMI-1640 10% FCS. Duplicate wells were treated with 10-fold dilutions of the compounds and incubated at 37° C. for 4 days. The wells were scored visually for cell attachment and morphology, then washed twice with PBS, stained with sulfurhodamine and the incorporate stain quantitated in an ELISA reader. The plates were then washed with water and stained with 1% crystal violet in methanol for photography and scoring of adherent cell morphology.

[4] = system: mouse skin; experiment: Acute inflammatory response in mouse skin; format: in vivo; conditions: male nude mice, s.c. 50 μL of 100 μg/mL; for scarring of the healed site: 14 days; for diameter of affected area of skin: by 24 hr
Procedure: Male nude mice were injected subcutaneously on each flank with 50 μL of solutions of 100 μg/mL of Compounds 1, 2, 5 and 42 respectively in 20% propylene glycol. Each site reddened within 4 hr and by 24 hr the affected area covered approximately 1 cm diameter of skin.

CC=C(C)C(=O)OC1C(C)C2(O)C(C3OC3(CO)C(O)C3(O)C(=O)C(C)=CC32)C2C(C)(C)C12OC(=O)C(C)CC (stereo not drawn) [Compound 1, 12-tigloyl-13-(2-methylbutanoyl)-6,7-epoxy-4,5,9,12,13,20-hexahydroxy-1-tigliaen-3-one]
% closure compared to control ([1]; 30 ng/mL): 150%
% closure compared to control ([1]; 100 ng/mL): 160%
Cell count as % of control (Control = no compounds added) [2]: 356 ± 141%
migratory ability in the Matrigel invasion chamber system vs vehicle alone ([2]; first study, 10 or 30 ng/mL, 10% foetal calf serum, 24 hours): increased migratory ability
Differentiation endpoint (endpoint concentration in dilution series for induction of macrophage phenotype) [3]: 1 ng/mL
scarring of the healed site [4]: minimal scarring
diameter of affected area of skin [4]: approximately 1 cm

CCC(C)C(=O)OC1C(C)C2(O)C(C3OC3(CO)C(O)C3(O)C(=O)C(C)=CC32)C2C(C)(C)C12OC(=O)C(C)CC (stereo not drawn) [Compound 2, 12,13-di-(2-methylbutanoyl)-6,7-epoxy-4,5,9,12,13,20-hexahydroxy-1-tigliaen-3-one]
% closure compared to control ([1]; 30 ng/mL): 147%
Cell count as % of control (Control = no compounds added) [2]: 366 ± 122%
Differentiation endpoint (endpoint concentration in dilution series for induction of macrophage phenotype) [3]: 1 ng/mL
scarring of the healed site [4]: minimal scarring
diameter of affected area of skin [4]: approximately 1 cm
